Laboratory results published in article PMC6279743, “A small molecule ApoE4-targeted therapeutic candidate that normalizes sirtuin 1 levels and improves cognition in an Alzheimer’s disease mouse model” (Scientific Reports, 2018).

Tests used:
[1] = tested on: SirT1 levels in A172-E4 cells; assay: Confirmation assay in A172-E4 cells, SirT1 AlphaLISA; type: cell-based, human; details: 50 μM A03 vs DMSO
Method: (§1) Jesus Campagna, Patricia Spilman, Barbara Jagodzinska, Dongsheng Bai, Asa Hatami, Chunni Zhu, Tina Bilousova, Michael Jun, Chris Jean Elias, Johnny Pham, Gregory Cole, Mary Jo LaDu, Michael E. Jung, Dale E. Bredesen, and […]
Confirmation assay in A172-E4 cells. Befo re transfection, A172 human glioblastoma cells were cultured in Dulbecco’s Modified Eagle Medium (DMEM) supplemented with 10% fetal bovine serum and 1% penicillin/streptomycin in a 37 °C incubator in an atmosphere of 5% CO2 in air. The day of transfection, the media was replaced with Opti-MEM reduced serum medium. Transient transfection with human ApoE4 and ApoE3 constructs in pcDNA3 mammalian expression vectors or empty vector (control) was performed in 96-well plates using a 1:1 mixture of two transfection reagents - Lipofectamine 2000 and siPORT amine - in Opti-MEM as previously described13. After 4 hr incubation with transfection reagents, medium was exchanged for fresh […]
Cells were incubated with the compound for 60 hrs, then cell culture medium (for sAPPα) and cells (lysates for SirT1) were harvested and levels of sAPPα and SirT1

[2] = tested on: APP cleavage products in E4FAD mice; assay: Second oral 56-day study, APP-derived cleavage products in hippocampus; type: in vivo; details: oral 56 days, vs vehicle
Method: E4FAD mice were 10–12 mo and NTg mice 7–9 mo at the start of the study.
Mice were euthanized and blood/tissues collected 2 hrs after dosing on Day 56 by the method described above for PK. Hip and FrCx were collected for analysis of SirT1, sAPPα, and Aβ1-42 levels by AlphaLISA. For Aβ1-42 the Perkin Elmer kit AL276C was used. Protein concentrations were determined using the Bradford protein assay. The sAPPα and sAPPβ AlphaLISAs were similar to the SirT1 AlphaLISA (see Supplementary Fig. S3) but the former uses anti-sAPPα antibody AF1168 and 2B3-biotinylated antibodies and the latter an anti-sAPPβ antibody (IBL Cat. #18957) and an anti-N-terminal APP antibody (R&D Systems AF1168) instead of anti-SirT1 antibodies. Brain tissue and plasma were sent to IAS for A03 level analysis.

E4FAD mice = assay: Y maze Forced Alternation in 56-day study; type: in vivo; details: minute 1 or by 5 minutes
Method: Study mice also underwent Forced Alternation (FA) tests in a Y maze apparatus[74],[75]. Details of the method can be found in Supplementary Methods. Briefly, individual test mice are prevented from entering one of three arms of the maze in the first 5 minute trial and after 30 minutes is returned to maze wherein the blocked arm is available. Time in Novel Arm C [%] was defined as the time spent in the novel arm divided by the time spent in all arms during the first minute.
A small molecule ApoE4-targeted therapeutic candidate that normalizes sirtuin 1 levels and Improves cognition in an Alzheimer’s disease mouse model
as §1
Confirmation assay in A172-E4 cells. […]
Cells were incubated with the compound for 60 hrs, then cell culture medium (for sAPPα) and cells (lysates for SirT1) were harvested and levels of sAPPα and SirT1 determined by AlphaLISA. […]
PAMPA. […] The parameters determined are Tr = retention time of compound; KIAM= (Tr-T0)/T0; T0= is the delay time of the column, determined by use of 100 µg/mL citric acid) and was T0= 1.24 min; and (KIAM/MW4)*10-(10). […]
Forced Alternation. […] An arm entry was recorded when all 4 paws of the mouse entered the arm. […]

[3] = Parallel Artificial Membrane Permeability Assay (PAMPA; IAM column); type: in vitro ADME
Method: We used L(+)tartaric acid to isolate the L-enantiomer salt and D(-) tartaric acid to isolate the D-enantiomer salt, followed by neutralization of the salt with NaOH and re-crystallization to obtain the enantiomers. Enantiomer abundance (Supplementary Fig. S4) was determined by HPLC using a Chiralpak IB column. Isopropanol (0.2% diethylamine)/hexanes was used for gradient elution with 5–50% isopropanol (0.2% diethylamine) for 11 min, a Chiralpak IB column, and with sample (1 μL, 1.25 mg/mL) injection, 220 nm wavelength detection, and a flow rate of 1 mL/min. […] The L-alanine analog co-elutes with enantiomer-1 while the D-alanine analog co-elutes with enantiomer-2. Analysis of the enantiomers and A03 in the Parallel Artificial Membrane Permeability Assay (PAMPA) was performed and is described in Supplementary Methods. […]
PAMPA. An IAM.PC.DD2 Regis Technologies analytical (10 cm x 4.6 mm) column wherein phospholipid is bonded on 10 μm, 300 Å, spherical aminopropyl silica and end capped with C10 and C3 amides was used to determine membrane permeability of A03, E1 and E2. An isocratic method was used with a mobile phase comprising acetonitrile:PBS (pH 5.6) equal to 35:65, an injection volume of 5 µL, and a flow rate of 1 mL/min. The parameters determined are Tr = retention time of compound; KIAM= (Tr-T0)/T0; T0= is the delay time of the column, determined by use of 100 µg/mL citric acid) and was T0= 1.24 min; and (KIAM/MW4)*10-(10). The molecular weight of all three compounds was 255.74 g/mol. […]
Supplementary Fig. S1. […] (a) Transient transfection with either
ApoE3 or E4 decreased SirT1 levels as compared to empty vector (Pc/DMSO), but the decrease was greater with […]

SirT1 mRNA = tested on: SirT1 mRNA; design: method as in PMID 26791201; details: original studies, A172-E4 cells; cited from earlier work

## CC(N)C(=O)OC(C)(C)Cc1ccc(Cl)cc1 (stereo not drawn) [A03, alaproclate]
[1]
  SirT1 levels in ApoE4-transfected A172 cells: significantly increased SirT1 levels
[2]
  Aβ1-42 in the Hip: lower than E4FAD Veh, but not significantly so
  sAPPα in the Hip: only slightly higher
  sAPPβ in the Hip: not changed
E4FAD mice
  Y maze FA, entries into the Novel Arm C: no significant differences amongst groups
[3]; IAM.PC.DD2 column, acetonitrile:PBS (pH 5.6) 35:65
  retention time (Tr) in PAMPA: 3.31
[3]; KIAM = (Tr-T0)/T0, T0 = 1.24 min
  KIAM: 1.67
[3]; MW 255.74 g/mol
  (KIAM/MW^4) * 10^−(10): 3.90
SirT1 mRNA
  SirT1 mRNA: increase in SirT1 mRNA
